Columns and labels:
[1] = biological target: Sodium-dependent dopamine transporter (Homo sapiens, UniProt Q01959); experiment: Displacement of [3H]WIN-35428 form human DAT expressed in HEK cell membranes; set-up: species or system HEK293
[2] = biological target: 5-hydroxytryptamine receptor 7 (Homo sapiens) (UniProt P34969); experiment: Inhibition of 5HT7 receptor at 10 uM
[3] = biological target: D(2) dopamine receptor (Homo sapiens) (UniProt P14416); experiment: Inhibition of dopamine D2 receptor at 10 uM
[4] = biological target: Kappa-type opioid receptor (Homo sapiens) (UniProt P41145); experiment: Inhibition of kappa opioid receptor at 10 uM
[5] = biological target: Sodium-dependent noradrenaline transporter (Homo sapiens, UniProt P23975); experiment: Displacement of [3H]nisoxetine from human NET expressed in HEK cells; type: cell-based, HEK293; conditions: for inhibition: HEK293, concentration not given here
Histamine H2 receptor = Histamine H2 receptor (Homo sapiens, UniProt P25021); experiment: Inhibition of H2 receptor
[6] = Displacement of [3H]-ditolyl guanidine from sigma 2 receptor in rat PC12 cells; type: cell-based; conditions: pc-12
[7] = biological target: T1, 5-hydroxytryptamine receptor 1A (Homo sapiens) (UniProt P08908); experiment: Inhibition of 5HT1A receptor at 10 uM
T1 sequence (whole entry): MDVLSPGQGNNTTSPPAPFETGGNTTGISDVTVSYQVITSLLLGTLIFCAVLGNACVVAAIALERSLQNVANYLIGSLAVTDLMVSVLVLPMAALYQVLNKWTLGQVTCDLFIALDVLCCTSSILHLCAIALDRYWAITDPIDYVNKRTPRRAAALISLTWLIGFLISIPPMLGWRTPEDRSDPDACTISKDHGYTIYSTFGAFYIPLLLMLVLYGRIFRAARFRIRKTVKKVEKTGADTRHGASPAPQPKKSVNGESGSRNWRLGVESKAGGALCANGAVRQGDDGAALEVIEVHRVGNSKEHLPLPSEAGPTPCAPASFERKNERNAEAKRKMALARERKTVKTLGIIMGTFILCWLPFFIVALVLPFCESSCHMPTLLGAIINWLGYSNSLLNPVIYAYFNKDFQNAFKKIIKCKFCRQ

[8] = biological target: 5-hydroxytryptamine receptor 1B (Homo sapiens) (UniProt P28222); experiment: Inhibition of 5HT1B receptor at 10 uM
[9] = biological target: T2, Alpha-1D adrenergic receptor (Homo sapiens) (UniProt P25100); experiment: Inhibition of Alpha-1D adrenergic receptor at 10 uM
T2 sequence (whole entry): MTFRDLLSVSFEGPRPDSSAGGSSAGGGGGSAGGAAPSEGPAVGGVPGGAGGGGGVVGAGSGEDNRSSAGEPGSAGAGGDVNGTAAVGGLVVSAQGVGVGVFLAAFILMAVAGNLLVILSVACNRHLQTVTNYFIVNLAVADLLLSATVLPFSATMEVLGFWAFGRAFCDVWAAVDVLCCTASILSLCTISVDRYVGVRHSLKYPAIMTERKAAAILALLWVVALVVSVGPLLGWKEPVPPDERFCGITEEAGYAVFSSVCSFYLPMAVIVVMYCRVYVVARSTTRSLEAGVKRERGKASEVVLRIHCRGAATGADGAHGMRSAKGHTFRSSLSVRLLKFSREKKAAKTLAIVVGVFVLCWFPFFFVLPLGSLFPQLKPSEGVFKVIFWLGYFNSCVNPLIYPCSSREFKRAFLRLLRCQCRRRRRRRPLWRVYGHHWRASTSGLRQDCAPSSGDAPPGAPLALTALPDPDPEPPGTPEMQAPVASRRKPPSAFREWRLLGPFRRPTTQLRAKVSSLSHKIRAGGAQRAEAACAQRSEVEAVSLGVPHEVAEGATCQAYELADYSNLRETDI

[10] = biological target: Beta-3 adrenergic receptor (Homo sapiens) (UniProt P13945); experiment: Inhibition of beta3 adrenergic receptor at 10 uM
[11] = biological target: Histamine H4 receptor (Homo sapiens) (UniProt Q9H3N8); experiment: Inhibition of H4 receptor at 10 uM
[12] = biological target: Sigma non-opioid intracellular receptor 1 (Rattus norvegicus, UniProt Q9R0C9); experiment: Displacement of (+)-[3H]pentazocine from sigma 1 receptor in rat PC12 cells; type: cell-based, PC-12
[13] = biological target: Delta-type opioid receptor (Homo sapiens) (UniProt P41143); experiment: Inhibition of delta opioid receptor at 10 uM
[14] = biological target: T3, Muscarinic acetylcholine receptor M4 (Homo sapiens) (UniProt P08173); experiment: Inhibition of muscarinic M4 receptor at 10 uM
T3 sequence (whole entry): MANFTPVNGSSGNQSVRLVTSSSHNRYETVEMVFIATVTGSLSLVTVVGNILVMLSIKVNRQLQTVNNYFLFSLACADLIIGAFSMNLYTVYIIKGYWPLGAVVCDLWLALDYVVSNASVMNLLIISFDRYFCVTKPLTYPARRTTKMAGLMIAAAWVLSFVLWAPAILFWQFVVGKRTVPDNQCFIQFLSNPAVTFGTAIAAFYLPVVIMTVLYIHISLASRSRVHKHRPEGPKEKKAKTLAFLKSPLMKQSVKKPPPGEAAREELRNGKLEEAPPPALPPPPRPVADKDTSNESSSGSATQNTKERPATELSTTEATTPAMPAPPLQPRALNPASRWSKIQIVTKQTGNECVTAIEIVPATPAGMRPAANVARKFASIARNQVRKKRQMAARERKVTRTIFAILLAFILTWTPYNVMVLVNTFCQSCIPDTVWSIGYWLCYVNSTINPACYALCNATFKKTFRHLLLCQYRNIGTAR

[15] = biological target: T4, Muscarinic acetylcholine receptor M2 (Homo sapiens) (UniProt P08172); experiment: Inhibition of muscarinic M2 receptor at 10 uM
T4 sequence (whole entry): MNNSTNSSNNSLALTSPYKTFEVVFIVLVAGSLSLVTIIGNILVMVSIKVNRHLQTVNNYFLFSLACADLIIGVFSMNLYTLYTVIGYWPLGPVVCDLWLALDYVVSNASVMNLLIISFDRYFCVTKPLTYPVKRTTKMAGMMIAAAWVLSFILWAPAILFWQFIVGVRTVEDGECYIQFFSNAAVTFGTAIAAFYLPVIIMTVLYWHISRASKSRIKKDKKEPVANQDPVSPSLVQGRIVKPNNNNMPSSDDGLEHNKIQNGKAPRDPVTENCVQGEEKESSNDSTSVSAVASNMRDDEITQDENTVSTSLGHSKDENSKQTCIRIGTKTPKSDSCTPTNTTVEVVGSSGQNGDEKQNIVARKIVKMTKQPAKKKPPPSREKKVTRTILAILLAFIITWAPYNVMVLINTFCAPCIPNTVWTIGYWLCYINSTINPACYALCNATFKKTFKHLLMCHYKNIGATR

[16] = biological target: Muscarinic acetylcholine receptor M3 (Homo sapiens, UniProt P20309); experiment: Inhibition of muscarinic M3 receptor at 10 uM
[17] = biological target: 5-hydroxytryptamine receptor 6 (Homo sapiens, UniProt P50406); experiment: Inhibition of 5HT6 receptor at 10 uM
Chain of 5-hydroxytryptamine receptor 6 (P50406 whole entry): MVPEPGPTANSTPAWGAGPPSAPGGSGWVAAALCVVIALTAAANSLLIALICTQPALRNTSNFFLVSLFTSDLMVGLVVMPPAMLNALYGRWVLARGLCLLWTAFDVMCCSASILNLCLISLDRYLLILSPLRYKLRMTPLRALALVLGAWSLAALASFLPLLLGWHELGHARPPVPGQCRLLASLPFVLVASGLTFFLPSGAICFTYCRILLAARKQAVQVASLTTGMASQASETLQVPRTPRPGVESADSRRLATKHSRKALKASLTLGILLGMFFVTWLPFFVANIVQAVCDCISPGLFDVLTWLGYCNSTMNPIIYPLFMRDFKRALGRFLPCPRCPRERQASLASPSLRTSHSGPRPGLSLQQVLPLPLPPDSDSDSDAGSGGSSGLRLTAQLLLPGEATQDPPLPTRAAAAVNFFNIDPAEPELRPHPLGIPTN

Chain of Histamine H2 receptor (P25021 whole entry): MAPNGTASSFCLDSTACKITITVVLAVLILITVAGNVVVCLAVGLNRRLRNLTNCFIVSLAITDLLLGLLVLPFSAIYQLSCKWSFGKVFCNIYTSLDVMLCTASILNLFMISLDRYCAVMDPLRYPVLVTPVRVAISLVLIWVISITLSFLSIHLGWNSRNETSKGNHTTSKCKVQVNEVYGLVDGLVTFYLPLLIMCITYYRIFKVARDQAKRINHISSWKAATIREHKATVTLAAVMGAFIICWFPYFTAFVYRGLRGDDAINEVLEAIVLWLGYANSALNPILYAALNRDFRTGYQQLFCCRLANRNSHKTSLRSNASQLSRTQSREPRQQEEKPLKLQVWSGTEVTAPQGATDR
Chain of Delta-type opioid receptor (Homo sapiens) (P41143 whole entry): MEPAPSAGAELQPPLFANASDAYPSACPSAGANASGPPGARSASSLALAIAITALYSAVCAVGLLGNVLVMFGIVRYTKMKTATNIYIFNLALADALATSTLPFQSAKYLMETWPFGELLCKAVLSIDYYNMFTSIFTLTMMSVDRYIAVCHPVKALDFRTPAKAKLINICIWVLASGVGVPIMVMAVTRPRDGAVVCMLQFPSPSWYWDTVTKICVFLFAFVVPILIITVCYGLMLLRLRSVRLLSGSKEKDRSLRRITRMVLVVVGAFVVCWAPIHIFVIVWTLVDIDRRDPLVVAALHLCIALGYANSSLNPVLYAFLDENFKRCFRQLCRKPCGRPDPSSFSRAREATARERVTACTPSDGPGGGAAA
Chain of Beta-3 adrenergic receptor (Homo sapiens) (P13945 whole entry, looked up): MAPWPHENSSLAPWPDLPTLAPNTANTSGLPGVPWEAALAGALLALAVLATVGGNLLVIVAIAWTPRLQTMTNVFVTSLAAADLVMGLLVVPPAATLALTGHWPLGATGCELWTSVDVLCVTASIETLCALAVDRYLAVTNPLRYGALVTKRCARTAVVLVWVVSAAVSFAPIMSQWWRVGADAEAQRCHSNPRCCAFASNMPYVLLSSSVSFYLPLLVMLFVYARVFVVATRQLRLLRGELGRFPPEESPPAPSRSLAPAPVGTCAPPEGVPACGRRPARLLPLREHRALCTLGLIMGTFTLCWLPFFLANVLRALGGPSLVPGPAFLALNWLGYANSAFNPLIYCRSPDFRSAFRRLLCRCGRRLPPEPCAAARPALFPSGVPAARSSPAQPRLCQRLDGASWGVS
Chain of Histamine H4 receptor (Homo sapiens) (Q9H3N8 whole entry): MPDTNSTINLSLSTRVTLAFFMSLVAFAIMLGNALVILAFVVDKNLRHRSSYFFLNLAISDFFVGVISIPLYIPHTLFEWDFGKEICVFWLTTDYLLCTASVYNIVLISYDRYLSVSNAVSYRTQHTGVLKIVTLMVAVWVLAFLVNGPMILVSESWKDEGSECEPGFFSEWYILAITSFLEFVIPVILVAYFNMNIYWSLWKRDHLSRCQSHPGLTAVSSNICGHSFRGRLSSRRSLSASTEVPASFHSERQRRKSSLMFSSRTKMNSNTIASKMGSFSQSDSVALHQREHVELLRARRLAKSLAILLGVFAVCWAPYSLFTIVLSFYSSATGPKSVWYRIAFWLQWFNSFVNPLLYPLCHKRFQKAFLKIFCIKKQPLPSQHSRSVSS
Chain of Sodium-dependent dopamine transporter (Q01959 whole entry): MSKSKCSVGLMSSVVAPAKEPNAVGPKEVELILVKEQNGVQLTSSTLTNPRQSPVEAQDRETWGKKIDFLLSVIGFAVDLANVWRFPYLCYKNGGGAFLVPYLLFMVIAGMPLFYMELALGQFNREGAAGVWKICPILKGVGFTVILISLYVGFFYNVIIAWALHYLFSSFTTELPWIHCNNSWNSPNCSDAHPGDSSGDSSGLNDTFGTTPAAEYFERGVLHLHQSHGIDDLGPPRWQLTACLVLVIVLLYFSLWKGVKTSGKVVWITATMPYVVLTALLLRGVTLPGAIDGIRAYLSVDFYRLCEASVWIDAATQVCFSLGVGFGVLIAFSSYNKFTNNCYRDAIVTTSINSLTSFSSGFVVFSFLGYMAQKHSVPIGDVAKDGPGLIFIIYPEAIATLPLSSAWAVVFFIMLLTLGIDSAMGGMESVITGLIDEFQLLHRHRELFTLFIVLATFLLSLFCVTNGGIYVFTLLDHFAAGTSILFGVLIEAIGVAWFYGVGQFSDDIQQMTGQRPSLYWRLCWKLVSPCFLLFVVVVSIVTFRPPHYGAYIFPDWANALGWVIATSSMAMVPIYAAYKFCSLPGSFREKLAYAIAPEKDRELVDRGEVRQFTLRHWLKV
Chain of Kappa-type opioid receptor (Homo sapiens) (P41145 whole entry): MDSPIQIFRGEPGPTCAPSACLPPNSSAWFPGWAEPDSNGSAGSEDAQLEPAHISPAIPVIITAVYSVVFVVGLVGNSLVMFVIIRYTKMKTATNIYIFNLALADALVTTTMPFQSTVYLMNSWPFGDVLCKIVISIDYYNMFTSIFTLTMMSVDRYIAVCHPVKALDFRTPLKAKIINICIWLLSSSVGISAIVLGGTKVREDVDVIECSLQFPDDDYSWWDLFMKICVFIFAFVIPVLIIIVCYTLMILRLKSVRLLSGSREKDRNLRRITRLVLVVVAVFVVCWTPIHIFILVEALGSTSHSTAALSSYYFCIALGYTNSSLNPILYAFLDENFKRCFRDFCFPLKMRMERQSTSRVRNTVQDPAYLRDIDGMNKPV
Chain of Sigma non-opioid intracellular receptor 1 (Q9R0C9 whole entry): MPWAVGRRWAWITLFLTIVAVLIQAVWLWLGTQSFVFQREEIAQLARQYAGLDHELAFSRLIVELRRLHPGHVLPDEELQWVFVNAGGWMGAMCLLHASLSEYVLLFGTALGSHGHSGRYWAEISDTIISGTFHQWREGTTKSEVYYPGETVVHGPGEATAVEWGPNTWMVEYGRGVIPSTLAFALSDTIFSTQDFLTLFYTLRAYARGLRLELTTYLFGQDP
Chain of Muscarinic acetylcholine receptor M3 (P20309 whole entry, looked up): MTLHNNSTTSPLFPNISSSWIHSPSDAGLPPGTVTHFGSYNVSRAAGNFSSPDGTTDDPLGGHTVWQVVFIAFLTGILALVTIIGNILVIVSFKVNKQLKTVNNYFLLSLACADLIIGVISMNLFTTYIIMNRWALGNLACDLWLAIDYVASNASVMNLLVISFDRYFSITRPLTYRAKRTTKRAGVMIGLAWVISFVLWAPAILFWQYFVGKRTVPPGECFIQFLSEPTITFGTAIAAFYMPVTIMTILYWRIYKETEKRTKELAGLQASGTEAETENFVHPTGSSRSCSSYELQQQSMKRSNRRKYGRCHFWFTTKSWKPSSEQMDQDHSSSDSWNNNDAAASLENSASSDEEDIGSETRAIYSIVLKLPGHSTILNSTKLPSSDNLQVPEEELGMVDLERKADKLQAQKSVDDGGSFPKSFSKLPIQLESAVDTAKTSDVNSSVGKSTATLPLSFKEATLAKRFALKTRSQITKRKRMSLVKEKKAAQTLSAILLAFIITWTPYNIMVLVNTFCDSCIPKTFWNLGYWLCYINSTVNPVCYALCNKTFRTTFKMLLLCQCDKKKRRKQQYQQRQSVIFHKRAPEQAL
Chain of Sodium-dependent noradrenaline transporter (P23975 whole entry): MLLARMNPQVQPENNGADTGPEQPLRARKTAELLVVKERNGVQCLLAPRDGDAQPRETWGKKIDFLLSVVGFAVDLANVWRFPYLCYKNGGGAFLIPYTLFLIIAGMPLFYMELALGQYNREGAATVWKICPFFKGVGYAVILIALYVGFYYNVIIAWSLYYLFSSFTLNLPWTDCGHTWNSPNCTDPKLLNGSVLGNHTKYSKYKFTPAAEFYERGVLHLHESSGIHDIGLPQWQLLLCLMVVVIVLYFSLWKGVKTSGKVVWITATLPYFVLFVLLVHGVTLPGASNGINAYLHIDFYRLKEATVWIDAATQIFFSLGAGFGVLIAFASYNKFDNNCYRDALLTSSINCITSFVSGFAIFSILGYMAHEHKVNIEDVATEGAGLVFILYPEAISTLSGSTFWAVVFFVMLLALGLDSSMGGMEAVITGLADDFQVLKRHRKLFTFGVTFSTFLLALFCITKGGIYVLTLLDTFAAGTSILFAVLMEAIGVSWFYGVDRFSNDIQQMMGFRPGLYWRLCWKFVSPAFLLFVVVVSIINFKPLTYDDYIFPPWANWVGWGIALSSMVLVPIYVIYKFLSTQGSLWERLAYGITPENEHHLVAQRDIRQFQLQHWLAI
Chain of D(2) dopamine receptor (Homo sapiens) (P14416 whole entry): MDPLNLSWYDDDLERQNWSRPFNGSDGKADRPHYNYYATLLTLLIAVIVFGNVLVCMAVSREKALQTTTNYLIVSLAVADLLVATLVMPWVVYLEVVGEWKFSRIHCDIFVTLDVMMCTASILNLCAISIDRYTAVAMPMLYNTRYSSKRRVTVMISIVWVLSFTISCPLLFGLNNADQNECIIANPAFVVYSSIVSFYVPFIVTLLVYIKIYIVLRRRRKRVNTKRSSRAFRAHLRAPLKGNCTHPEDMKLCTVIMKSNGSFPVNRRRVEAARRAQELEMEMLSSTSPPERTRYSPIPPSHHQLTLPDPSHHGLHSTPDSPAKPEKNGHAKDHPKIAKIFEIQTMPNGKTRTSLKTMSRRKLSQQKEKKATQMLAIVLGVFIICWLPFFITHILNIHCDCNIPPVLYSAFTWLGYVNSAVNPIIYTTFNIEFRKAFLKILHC

| Compound | Ki [1] | inhibition [2] | inhibition [3] | inhibition [4] | Ki [5] | Ki (Histamine H2 receptor) | Ki [6] | inhibition [7] | inhibition [8] | inhibition [9] | inhibition [10] | inhibition [11] | Ki [12] | inhibition [13] | inhibition [14] | inhibition [15] | inhibition [16] | inhibition [17] | inhibition [5] |
| --- | --- | --- | --- | --- | --- | --- | --- | --- | --- | --- | --- | --- | --- | --- | --- | --- | --- | --- | --- |
| Fc1cccc(CCN[C@H]2C3C4CC5C6C4CC3C6C52)c1 (some centres not stated) | 1680 nM | < 50% | < 50% | < 50% | 3620 nM | 4420 nM | 6 nM | < 50% | < 50% | < 50% | < 50% | < 50% | 19 nM | < 50% |  |  |  |  |  |
| Fc1cccc(CN[C@H]2C3C4CC5C6C4CC3C6C52)c1 (some centres not stated) | 3440 nM | < 50% | < 50% | < 50% | 5880 nM | 2150 nM | 19 nM | < 50% | < 50% | < 50% | < 50% | < 50% | 198 nM | < 50% | < 50% | < 50% | < 50% | < 50% |  |
| CN(CCc1cccc(F)c1)[C@H]1C2C3CC4C5C3CC2C5C41 (some centres not stated) | 101 nM | < 50% | < 50% | < 50% |  | 4450 nM | 39 nM | < 50% | < 50% | < 50% | < 50% | < 50% | 1160 nM | < 50% | < 50% | < 50% | < 50% | < 50% | < 50% |
| CN(Cc1cccc(F)c1)[C@H]1C2C3CC4C5C3CC2C5C41 (some centres not stated) | 1.2 nM | < 50% | < 50% | < 50% |  |  | 117 nM | < 50% | < 50% | < 50% | < 50% | < 50% | 1570 nM | < 50% | < 50% | < 50% | < 50% | < 50% | < 50% |
